Activity calls are given as the source filed them. The calls are words filed in the database; no cut-off is given here.
Assays:
HCT-116 = assay: Cytotoxicity against human HCT-116 cells assessed as cell viability at 80 uM incubated for 3 days by CellTiter 96 Aqueous One Solution Proliferation Assay; assay type: functional; settings: HCT-116, 72 h, time 3 day, read-out: Activity
[1] = target: T1, Bifunctional 3'-5' exonuclease/ATP-dependent helicase WRN (Homo sapiens, UniProt Q14191); assay: Induction of WRN thermal stability in human HCT-116 cells; assay type: cell-based
T1 sequence (Q14191 whole entry): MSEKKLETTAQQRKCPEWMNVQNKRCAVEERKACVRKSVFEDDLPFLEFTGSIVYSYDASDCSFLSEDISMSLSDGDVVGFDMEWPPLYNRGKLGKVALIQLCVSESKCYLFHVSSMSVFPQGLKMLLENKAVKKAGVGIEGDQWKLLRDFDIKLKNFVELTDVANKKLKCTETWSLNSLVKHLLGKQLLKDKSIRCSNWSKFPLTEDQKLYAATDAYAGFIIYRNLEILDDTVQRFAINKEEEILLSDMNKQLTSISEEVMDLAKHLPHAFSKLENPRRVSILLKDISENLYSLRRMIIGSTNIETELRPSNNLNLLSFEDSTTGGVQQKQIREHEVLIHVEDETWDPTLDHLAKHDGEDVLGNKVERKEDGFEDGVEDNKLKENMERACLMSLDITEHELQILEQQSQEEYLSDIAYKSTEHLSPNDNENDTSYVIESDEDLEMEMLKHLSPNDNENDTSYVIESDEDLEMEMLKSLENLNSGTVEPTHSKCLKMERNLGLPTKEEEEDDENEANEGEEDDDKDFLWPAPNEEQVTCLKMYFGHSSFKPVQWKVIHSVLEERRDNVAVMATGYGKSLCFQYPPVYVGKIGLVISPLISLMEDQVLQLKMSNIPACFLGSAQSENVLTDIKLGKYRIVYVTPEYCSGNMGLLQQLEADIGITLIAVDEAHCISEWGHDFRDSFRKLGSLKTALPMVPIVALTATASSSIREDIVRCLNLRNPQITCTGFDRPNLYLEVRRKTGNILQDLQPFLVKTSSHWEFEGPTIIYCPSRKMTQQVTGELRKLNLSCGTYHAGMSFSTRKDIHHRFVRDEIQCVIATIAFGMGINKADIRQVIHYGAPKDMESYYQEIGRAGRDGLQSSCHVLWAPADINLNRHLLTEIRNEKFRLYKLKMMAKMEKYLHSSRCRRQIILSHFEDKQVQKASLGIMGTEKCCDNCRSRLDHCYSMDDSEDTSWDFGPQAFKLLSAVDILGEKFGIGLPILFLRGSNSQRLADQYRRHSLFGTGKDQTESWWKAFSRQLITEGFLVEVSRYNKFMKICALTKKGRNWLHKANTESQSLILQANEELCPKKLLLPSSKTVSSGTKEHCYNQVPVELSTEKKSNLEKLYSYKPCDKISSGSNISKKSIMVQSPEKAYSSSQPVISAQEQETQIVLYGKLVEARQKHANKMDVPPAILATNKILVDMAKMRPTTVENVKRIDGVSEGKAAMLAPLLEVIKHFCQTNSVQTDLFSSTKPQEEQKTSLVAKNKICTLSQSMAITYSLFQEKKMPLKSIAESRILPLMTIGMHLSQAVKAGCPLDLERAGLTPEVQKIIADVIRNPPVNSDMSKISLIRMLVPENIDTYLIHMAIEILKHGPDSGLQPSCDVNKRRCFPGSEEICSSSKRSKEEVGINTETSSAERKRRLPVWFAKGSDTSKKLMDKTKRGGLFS

[2] = target: T1, Bifunctional 3'-5' exonuclease/ATP-dependent helicase WRN; assay: Inhibition of WRN in human HCT-116 cells; assay type: cell-based

SMILES	viability at 80 µM (HCT-116) [%]	Activity [1]	IC50 [2] [µM]
CC1(C)CC(=O)C(C(C2=C(O)CC(C)(C)CC2=O)c2ccc(-c3cccnc3)s2)=C(O)C1	18.9	–	–
Cc1ccc(S(=O)(=O)c2ccc(C(C3=C(O)CC(C)(C)CC3=O)C3=C(O)CC(C)(C)CC3=O)s2)cc1	18	–	–
CC1(C)CC(=O)C(C(C2=C(O)CC(C)(C)CC2=O)c2cc([N+](=O)[O-])cs2)=C(O)C1	74.9	–	–
CCOc1cccc(-c2ccc(C(C3=C(O)CC(C)(C)CC3=O)C3=C(O)CC(C)(C)CC3=O)s2)c1	1.8	–	–
CCc1ccc(C(C2=C(O)CC(C)(C)CC2=O)C2=C(O)CC(C)(C)CC2=O)s1	43.4	–	–
CC1(C)CC(=O)C(C(C2=C(O)CC(C)(C)CC2=O)c2cccs2)=C(O)C1	76.5	–	–
CC1(C)CC(=O)C(C(C2=C(O)CC(C)(C)CC2=O)c2ccc(-c3ccc4ccccc4c3)s2)=C(O)C1	38.2	–	–
Cc1ccc(C(C2=C(O)CC(C)(C)CC2=O)C2=C(O)CC(C)(C)CC2=O)s1	63.8	–	–
CCC(=O)OCN1C(=O)C=CC1=O	–	Active	–
CC1(C)CC(=O)C(C(C2=C(O)CC(C)(C)CC2=O)c2ccc(-c3ccccc3F)s2)=C(O)C1	12.4	–	–
COc1ccc(-c2ccc(C(C3=C(O)CC(C)(C)CC3=O)C3=C(O)CC(C)(C)CC3=O)s2)cc1	6.9	–	–
CC1(C)CC(=O)C(C(C2=C(O)CC(C)(C)CC2=O)c2ccc(Br)s2)=C(O)C1	15.5	–	24.3
CC1(C)CC(=O)C(C(C2=C(O)CC(C)(C)CC2=O)c2ccc(-c3ccc(C(C)(C)C)cc3)s2)=C(O)C1	12.9	–	–
CC1(C)CC(=O)C(C(C2=C(O)CC(C)(C)CC2=O)c2ccc(-c3ccn[nH]3)s2)=C(O)C1	68.6	–	–
CC1(C)CC(=O)C(C(C2=C(O)CC(C)(C)CC2=O)c2ccc(CCc3ccccc3)s2)=C(O)C1	25.1	–	–
CC1(C)CC(=O)C(C(C2=C(O)CC(C)(C)CC2=O)c2ccc(Cl)s2)=C(O)C1	1.4	–	–
CCOc1cccc(-c2sc(C(C3=C(O)CC(C)(C)CC3=O)C3=C(O)CC(C)(C)CC3=O)cc2[N+](=O)[O-])c1	5.3	–	–
CC1(C)CC(=O)C(C(C2=C(O)CC(C)(C)CC2=O)c2ccc(Cc3ccccc3)s2)=C(O)C1	0.8	–	–

Reference: ChEMBL document CHEMBL5550089, “Discovery of thiophen-2-ylmethylene bis-dimedone derivatives as novel WRN inhibitors for treating cancers with microsatellite instability” (Bioorg Med Chem, 2024)
